In patent EP3722295A1, “ANTI-VIRAL AND ANTI-CANCER ACTIVITY OF PYRIDO[2,3-D]PYRIMIDINE AND OXADIAZIOLE COMPOUNDS” (priority 2019, dated 2020):
Like-named read-outs stand apart in the source and are kept apart here.

Assays:
WSN-PB2-Nanoluc virus = assay type: cell-based, influenza A/WSN/33
RED-SMU1 complex = RED-SMU1 complex (Homo sapiens, UniProt Q2TAY7); experiment: In cellulo split luciferase-based RED-SMU1 interaction assay; assay type: cell-based; conditions: for inhibition at 60 µM: A549 cells, relative to DMSO
FOS:JUN = target: T1, FOS:JUN (Homo sapiens, UniProt P01100+P05412); experiment: FOS:JUN split luciferase interaction assay (specificity control); assay type: cell-based
T1 construct: expressed in transfected cells
T1 sequence (P01100 whole entry): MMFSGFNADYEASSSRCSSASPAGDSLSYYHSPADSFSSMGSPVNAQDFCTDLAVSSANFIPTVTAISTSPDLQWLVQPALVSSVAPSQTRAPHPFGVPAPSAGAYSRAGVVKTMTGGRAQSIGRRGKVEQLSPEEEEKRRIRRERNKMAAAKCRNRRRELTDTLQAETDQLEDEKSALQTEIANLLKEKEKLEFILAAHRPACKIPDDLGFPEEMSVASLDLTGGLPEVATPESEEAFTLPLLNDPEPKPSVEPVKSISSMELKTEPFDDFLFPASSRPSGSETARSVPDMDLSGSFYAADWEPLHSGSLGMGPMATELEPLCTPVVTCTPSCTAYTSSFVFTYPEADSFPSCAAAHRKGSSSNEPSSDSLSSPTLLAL
T1 sequence (P05412 whole entry): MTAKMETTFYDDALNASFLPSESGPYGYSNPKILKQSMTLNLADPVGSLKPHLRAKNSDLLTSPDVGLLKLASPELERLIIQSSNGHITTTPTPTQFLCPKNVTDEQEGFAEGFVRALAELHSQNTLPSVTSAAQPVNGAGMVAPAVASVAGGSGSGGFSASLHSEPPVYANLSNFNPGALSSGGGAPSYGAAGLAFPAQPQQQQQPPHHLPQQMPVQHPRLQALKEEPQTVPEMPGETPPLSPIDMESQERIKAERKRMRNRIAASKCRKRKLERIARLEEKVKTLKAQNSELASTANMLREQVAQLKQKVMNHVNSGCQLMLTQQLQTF

RSV-Firefly virus = experiment: RSV-Firefly replication assay (specificity control); assay type: cell-based, human Respiratory Syncytial Virus
viral NS1 mRNA = experiment: NS1 mRNA splicing, quantitative real-time PCR; assay type: cell-based, influenza A/WSN/33; conditions: WSN-infected A549 cells, 60 µM, 6 h incubation
Description: (§1) Total RNA and poly(A)+ RNAs were extracted subsequently using the RNeasy Mini Kit (Qiagen) and Oligotex mRNA Mini kit (Qiagen), following the manufacturer's protocol. Reverse transcription (RT) was performed on 5-10 ng of total mRNA (or poly(A)+ RNA equivalent) using the Maxima First Strand cDNA Synthesis Kit (Thermo Scientific). Quantitative real-time PCR was performed on 2 µl of a 1/10 dilution of the RT reaction using the Luminaris Color Probe qPCR Master Mix (Thermo Scientific) and a Light Cycler 480 (Roche). The levels of NS1/NS2 and M1/M2 mRNAs were determined and normalized with respect to GAPDH mRNA levels using the protocol described in (23). The levels of PB2/PB2-S1 mRNAs were determined by semi-quantitative RT-PCR as described in (35).

viral M1 mRNAs = experiment: M1 mRNA splicing, RT-qPCR; assay type: cell-based, influenza A/WSN/33; conditions: WSN-infected A549 cells, 60 µM
Description: as §1

PB2 mRNA = PB2 mRNA splicing, semi-quantitative RT-PCR; assay type: cell-based, influenza A/WSN/33; conditions: WSN-infected A549 cells, 60 µM
Description: as §1

[1] = target: T2, endogenous RED-SMU1 complex (Homo sapiens, UniProt Q2TAY7); experiment: Western blot of steady-state levels of endogenous RED and SMU1 proteins; assay type: cell-based
T2 construct: Effect on the steady-state levels of the endogenous RED and SMU1 proteins; endogenous in cells; host or cells: A549

A549 cells = experiment: Cell viability assay (CellTiter-Glo, ATP levels) and observation of cell monolayers; assay type: cell-based, human
Description: Cell viability was assessed using the CellTiter-Glo® One Solution Assay kit (Promega) according to the manufacturer's instruction.

WSN virus = experiment: Production of infectious particles in A549 cells, plaque assay; assay type: cell-based, influenza A/WSN/33; conditions: 60 µM

Compound	inhibition of viral growth (WSN-PB2-Nanoluc virus)	inhibition at 60 µM (RED-SMU1 complex)	effect in FOS:JUN interaction assay (FOS:JUN; specificity control, same concentrations as RED-SMU1 assay)	RSV-Firefly signals (RSV-Firefly virus; A549 cells, 7.5 - 60 µM, 24 hpi)	reduction of NS2 to NS1 mRNA ratio (viral NS1 mRNA)	splicing of the viral M1 mRNAs (viral M1 mRNAs)	PB2 mRNA splicing (PB2 mRNA)	EC50 (RED-SMU1 complex)	effect in FOS:JUN interaction assay (FOS:JUN)	Expression levels of RED and SMU1 proteins [1]	growth of the tumoral cell line A549 (A549 cells)	cytotoxicity / cytostatic effect (A549 cells; A549 cells, 15, 30 and 60 µM, 24 and 48 hours of incubation)	reduction of WSN-Nanoluc signals (WSN-PB2-Nanoluc virus)	RSV-Firefly signals (RSV-Firefly virus)	reduction of production of WSN infectious particles (WSN virus; 24 hpi)	reduction of production of WSN infectious particles (WSN virus; 48 hpi)	reduction of production of WSN infectious particles (WSN virus; 72 hpi)	logP (physchem)
CCN(CC)CCCCNc1ncc2cc(-c3cc(OC)cc(OC)c3)c(NC(=O)NC(C)(C)C)nc2n1 [PD173074, reference compound]	did not inhibit viral growth as efficiently as LSP61	–	–	–	–	–	–	–	–	–	–	–	–	–	–	–	–	–
COc1cc(OC)cc(-c2cc3cnc(NCc4cn(C5CCN(Cc6ccccc6)CC5)nn4)nc3nc2NC(=O)NC(C)(C)C)c1 [LSP641]	–	40%	none of the two compounds showed any significant effect	only moderate reductions	30%	did not inhibit	not affected	–	–	–	–	–	–	–	–	–	–	–
C#CCCCNc1ncc2cc(-c3cc(OC)cc(OC)c3)c(NC(=O)NC(C)(C)C)nc2n1 [LSP61]	–	90%	–	–	50%	did not inhibit	not affected	~15 µM	none of the two compounds showed any significant effect	decreased	inhibits the growth	no cytotoxicity but some cytostatic effect	25 fold	only moderate reductions	about 1000 fold	~100 fold	~10 fold	4.8
